# Residues, ends and D or L forms follow the SMILES beside them.
# Columns and labels:
# Protein S = molecular target: T1, Protein S (Homo sapiens, UniProt P07225); assay: competition (IC50) ELISA with biotinylated tracer peptide JBS0684; format: binding; settings: competition ELISA, tracer JBS0684; re-synthesized peptides
# T1 sequence (P07225 41-676 limits assumed): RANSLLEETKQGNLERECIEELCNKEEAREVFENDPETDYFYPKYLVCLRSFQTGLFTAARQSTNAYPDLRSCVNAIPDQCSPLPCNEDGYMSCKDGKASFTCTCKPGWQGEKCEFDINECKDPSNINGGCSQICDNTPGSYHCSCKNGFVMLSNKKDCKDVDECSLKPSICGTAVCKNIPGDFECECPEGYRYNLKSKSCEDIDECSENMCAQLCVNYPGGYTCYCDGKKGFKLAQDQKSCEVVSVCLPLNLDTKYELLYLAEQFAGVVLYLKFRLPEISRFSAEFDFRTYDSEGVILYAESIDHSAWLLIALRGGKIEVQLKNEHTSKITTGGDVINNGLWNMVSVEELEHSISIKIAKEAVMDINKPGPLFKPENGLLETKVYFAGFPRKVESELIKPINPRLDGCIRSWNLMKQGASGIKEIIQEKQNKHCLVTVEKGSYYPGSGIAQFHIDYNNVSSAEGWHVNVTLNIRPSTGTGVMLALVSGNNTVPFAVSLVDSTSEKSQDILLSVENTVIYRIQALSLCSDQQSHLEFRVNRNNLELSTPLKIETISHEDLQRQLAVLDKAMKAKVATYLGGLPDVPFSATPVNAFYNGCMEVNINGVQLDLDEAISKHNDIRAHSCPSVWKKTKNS
# Description: The new peptide candidates were synthesized (purity >60%) and screened for affinity in a competitive binding assay (ELISA IC50) and activity in a thrombin generation assay (CAT). The competition (IC50) ELISA was performed using biotinylated tracer peptide JBS0684 to compete for Protein S-binding with candidate peptides. Peptides that compete with the tracer bind the same region of Protein S as the tracer (and each other). Ninety-six well PolySorp plates (Nunc) were coated with 3 μg/mL Protein S in coating buffer (15 mM Na2CO3, 35 mM NaHCO3, pH 9.6) over night. Plates were washed three times with wash buffer (HNaT: 175 mM NaCl, 25 mM HEPES, 5 mM CaCl2, 0.1% Tween 80, pH 7.35), and blocked with 100 μl 2% yeast extract in HNaT for at least 1 hour. Plates were then washed three times with HNaT. JBS0684 was applied at a concentration corresponding to the EC90 value determined in the binding ELISA. A competitor stock solution of peptide (10 mM) was diluted 1/33.3 in HNaT without HSA, and a serial ⅓ dilution was prepared with HNaT with 3% DMSO. The dilution was further diluted with the biotinylated tracer peptide in a ratio of 1:6 (20 μl competitor dilution and 100 μl tracer peptide). The mixture of competitor and tracer peptide was applied to the Protein S-coated microtiter plate and incubated for 1.5 hours. The plates were washed three times with HNaT. Peptide-Protein S binding was detected by applying HRP-conjugated streptavidin to the microtiter plate, incubating the mixture for one hour, washing the plate three times with HNaT, applying TMB (3,3′5,5′-Tetramethylbenzidin), and detecting the subsequent chromogenic conversion of TMB by HRP. IC50 measurements of peptides are provided herein (see, e.g., Table 3).
# [1] = molecular target: T2, Protein S/APC cofactor activity (Homo sapiens, UniProt P07225); assay: CAT assay: Protein S/APC-dependent thrombin generation in FVIII-inhibited plasma; format: biochemical; settings: Protein S-depleted plasma supplemented with APC and Protein S, FVIII-inhibited
# T2 construct: host or cells: plasma
# T2 sequence (P07225 41-676 limits assumed): T1 sequence (P07225 41-676 limits assumed)
# Description: Peptides also were tested for improvement of Protein S/APC-dependent thrombin generation in hemophilic plasma using a CAT assay. Protein S enhances the anticoagulation of APC in plasma. The CAT assay quantifies the effect of Protein S on APC-mediated thrombin generation initiated via the extrinsic coagulation pathway (Nicolaes, Blood Coagul. Fibrinolysis, 8:28 (1997)). APC (35 nM) and Protein S (25 nM) was added to Protein 5-depleted plasma, and plasma samples were incubated with high titer heat inactivated anti-human FVIII plasma raised in goat (4490 BU/ml; Baxter BioScience, Vienna, Austria; 50 BU/ml final plasma concentration). Thrombin formation in plasma was followed by calibrated automated thrombography (CAT) in a Fluoroskan Ascent® reader (Thermo Labsystems, Helsinki, Finland) and quantified via the thrombin peak-height. Thrombin generation was determined at high tissue factor (TF) concentration in the absence and in the presence of APC at a concentration that reduces the peak height to ˜20%. The inhibitory effect of peptides described herein on the APC cofactor activity of Protein S (PS) in plasma was measured in FVIII-inhibited pooled normal plasma supplemented with APC. Complete (100%) Protein S/APC inhibition is the height of the thrombin peak without addition of APC. Lack of (0%) PS/APC inhibition correlates to the thrombin peak-height value with a certain amount of APC. Peptides were ranked by their normalized values in comparison to the mean of wild-type controls including SD at two defined peptide concentrations (EC50 and EC90).
# Exemplary conditions for the CAT assay are as follows. Protein S-depleted plasma was supplemented with 35 nM APC and […]. Stock APC was diluted with 10 pM TF and 15 μM PL. Lyophilized peptides were dissolved in 100% DMSO to a 5 mM stock concentration and further diluted with HNABSA5-buffer+0.1% Tween80. […] In a 96 well Immulon 2HB (transparent), U-bottom (ThermoElectron) plate was mixed 80 μl plasma (+CTI+Z994-5), 10 μl peptide dilution, and 10 μl APC-TF-PL-MIX or Calibrator. Thrombin generation was initiated by dispensing 20 μL of FluCa reagent containing fluorogenic substrate and HEPES-buffered CaCl2 (100 mM) into each well. Fluorescence intensity was recorded at 37° C. using the Fluoroskan Ascent® reader (filters 390 nm excitation and 460 nm emission). The parameters of the resulting thrombin generation curves were calculated using the Thrombinoscope™ software (Thrombinoscope) and thrombin calibrator to correct for inner filter and substrate consumption effects (Hemker, Pathophysiol Haemost Thromb, 33: 415 (2003)).
SMILES,IC50 (Protein S),EC50 [1]
CC(=O)N[C@H](C(=O)NCC(=O)N[C@@H](Cc1c[nH]cn1)C(=O)N[C@H](C(=O)N[C@@H](CO)C(=O)N[C@@H](C)C(=O)NCC(=O)N[C@@H](Cc1c[nH]c2ccccc12)C(=O)N[C@@H](Cc1ccc(O)cc1)C(=O)N[C@@H](CC(=O)O)C(=O)N[C@@H](Cc1ccc(O)cc1)C(=O)N[C@@H](CC(N)=O)C(=O)N[C@@H](Cc1ccccc1)C(=O)N[C@@H](CC(=O)O)C(=O)N[C@@H](Cc1c[nH]cn1)C(=O)N[C@@H](Cc1ccc(O)cc1)C(=O)N[C@@H](CC(C)C)C(=O)N[C@@H](CCC(=O)O)C(=O)N[C@@H](Cc1ccccc1)C(=O)N[C@H](C(N)=O)[C@@H](C)O)C(C)C)[C@@H](C)O [JBS2586] (Ac-TGHVSAGWYDYNFDHYLEFT-NH2),2.6 nM,19 nM
CC(=O)N[C@H](C(=O)NCC(=O)N[C@@H](Cc1c[nH]cn1)C(=O)N[C@H](C(=O)N[C@@H](CO)C(=O)N[C@@H](C)C(=O)NCC(=O)N[C@@H](Cc1c[nH]c2ccccc12)C(=O)N[C@@H](Cc1ccc(O)cc1)C(=O)N[C@@H](CC(=O)O)C(=O)N[C@@H](Cc1ccc(O)cc1)C(=O)N[C@@H](CC(N)=O)C(=O)N[C@@H](Cc1ccccc1)C(=O)N[C@@H](CC(=O)O)C(=O)N[C@@H](CCCCN)C(=O)N[C@@H](Cc1ccc(O)cc1)C(=O)N[C@@H](CCCNC(=N)N)C(=O)N[C@@H](CCC(=O)O)C(=O)N[C@@H](Cc1ccccc1)C(=O)N[C@H](C(N)=O)[C@@H](C)O)C(C)C)[C@@H](C)O [JBS2604] (Ac-TGHVSAGWYDYNFDKYREFT-NH2),4.1 nM,19 nM
CC(=O)N[C@H](C(=O)NCC(=O)N[C@@H](Cc1c[nH]cn1)C(=O)N[C@H](C(=O)N[C@@H](CO)C(=O)N[C@@H](C)C(=O)NCC(=O)N[C@@H](Cc1c[nH]c2ccccc12)C(=O)N[C@@H](Cc1ccc(O)cc1)C(=O)N[C@@H](CC(=O)O)C(=O)N[C@@H](Cc1ccc(O)cc1)C(=O)N[C@@H](CC(N)=O)C(=O)N[C@@H](Cc1ccccc1)C(=O)N[C@@H](CC(=O)O)C(=O)N[C@@H](CC(=O)O)C(=O)N[C@@H](Cc1ccc(O)cc1)C(=O)N[C@@H](CCCNC(=N)N)C(=O)N[C@@H](CCC(=O)O)C(=O)N[C@@H](Cc1ccccc1)C(=O)N[C@H](C(N)=O)[C@@H](C)O)C(C)C)[C@@H](C)O [JBS2546] (Ac-TGHVSAGWYDYNFDDYREFT-NH2),6.8 nM,30 nM
CC(=O)N[C@H](C(=O)NCC(=O)N[C@@H](Cc1c[nH]cn1)C(=O)N[C@H](C(=O)N[C@@H](CO)C(=O)N[C@@H](C)C(=O)NCC(=O)N[C@@H](Cc1c[nH]c2ccccc12)C(=O)N[C@@H](Cc1ccc(O)cc1)C(=O)N[C@@H](CC(=O)O)C(=O)N[C@@H](Cc1ccc(O)cc1)C(=O)N[C@@H](CC(N)=O)C(=O)N[C@@H](Cc1ccccc1)C(=O)N[C@@H](CC(=O)O)C(=O)N[C@@H](CC(C)C)C(=O)N[C@@H](Cc1ccc(O)cc1)C(=O)N[C@@H](CCCNC(=N)N)C(=O)N[C@@H](CCC(=O)O)C(=O)N[C@@H](Cc1ccccc1)C(=O)N[C@H](C(N)=O)[C@@H](C)O)C(C)C)[C@@H](C)O [JBS2584] (Ac-TGHVSAGWYDYNFDLYREFT-NH2),2.7 nM,9 nM

# The remaining molecules from weak to strong by IC50 (Protein S), led by results:
IC50 (Protein S),EC50 [1],SMILES
5.5 nM,24 nM,CC(=O)NCC(=O)NCC(=O)N[C@@H](Cc1c[nH]cn1)C(=O)N[C@H](C(=O)N[C@@H](CO)C(=O)N[C@@H](C)C(=O)NCC(=O)N[C@@H](Cc1c[nH]c2ccccc12)C(=O)N[C@@H](Cc1ccc(O)cc1)C(=O)N[C@@H](CC(=O)O)C(=O)N[C@@H](Cc1ccc(O)cc1)C(=O)N[C@@H](CC(N)=O)C(=O)N[C@@H](Cc1ccccc1)C(=O)N[C@@H](CC(=O)O)C(=O)N[C@@H](Cc1c[nH]cn1)C(=O)N[C@@H](Cc1ccc(O)cc1)C(=O)N[C@@H](CCCNC(=N)N)C(=O)N[C@@H](CCC(=O)O)C(=O)N[C@@H](Cc1ccccc1)C(=O)N[C@H](C(N)=O)[C@@H](C)O)C(C)C [JBS2552] (Ac-GGHVSAGWYDYNFDHYREFT-NH2)
3.6 nM,19 nM,CC(=O)N[C@H](C(=O)NCC(=O)N[C@@H](Cc1c[nH]cn1)C(=O)N[C@H](C(=O)N[C@@H](CO)C(=O)N[C@@H](C)C(=O)NCC(=O)N[C@@H](Cc1c[nH]c2ccccc12)C(=O)N[C@@H](Cc1ccc(O)cc1)C(=O)N[C@@H](CC(=O)O)C(=O)N[C@@H](Cc1ccc(O)cc1)C(=O)N[C@@H](CC(N)=O)C(=O)N[C@@H](C)C(=O)N[C@@H](CC(=O)O)C(=O)N[C@@H](Cc1c[nH]cn1)C(=O)N[C@@H](Cc1ccc(O)cc1)C(=O)N[C@@H](CCCNC(=N)N)C(=O)N[C@@H](CCC(=O)O)C(=O)N[C@@H](Cc1ccccc1)C(=O)N[C@H](C(N)=O)[C@@H](C)O)C(C)C)[C@@H](C)O [JBS2526] (Ac-TGHVSAGWYDYNADHYREFT-NH2)
3.4 nM,30 nM,CC(=O)N[C@H](C(=O)NCC(=O)N[C@@H](Cc1c[nH]cn1)C(=O)N[C@H](C(=O)N[C@@H](CO)C(=O)N[C@@H](C)C(=O)NCC(=O)N[C@@H](Cc1c[nH]c2ccccc12)C(=O)N[C@@H](Cc1ccc(O)cc1)C(=O)N[C@@H](CC(=O)O)C(=O)N[C@@H](Cc1ccc(O)cc1)C(=O)N[C@@H](CC(N)=O)C(=O)N[C@@H](CCCCN)C(=O)N[C@@H](CC(=O)O)C(=O)N[C@@H](Cc1c[nH]cn1)C(=O)N[C@@H](Cc1ccc(O)cc1)C(=O)N[C@@H](CCCNC(=N)N)C(=O)N[C@@H](CCC(=O)O)C(=O)N[C@@H](Cc1ccccc1)C(=O)N[C@H](C(N)=O)[C@@H](C)O)C(C)C)[C@@H](C)O [JBS2602] (Ac-TGHVSAGWYDYNKDHYREFT-NH2)

# — patent publication US10124033B2, “Peptides and methods of use” (BAXALTA INCORPORATED, priority 2014, dated 2018)
